Assay results: patent publication US20190345146A1, “NITROGEN CONTAINING BICYCLIC DERIVATIVES FOR TREATING PAIN AND PAIN RELATED CONDITIONS” (ESTEVE PHARMACEUTICALS, S.A., priority 2016, published 2019)
Where two headings read alike, the source gives them in different places.

Tests used:
[1] = target: human α2δ-1 subunit of Cav2.2 calcium channel (Homo sapiens, UniProt P54289); test: Binding assay to human α2δ-1 subunit of Cav2.2 calcium channel ([3H]-Gabapentin); conditions: read-out: Ki(nM) alpha2delta Hum
human α2δ-1 subunit of Cav2.2 calcium channel, sequence (P54289 25-1103): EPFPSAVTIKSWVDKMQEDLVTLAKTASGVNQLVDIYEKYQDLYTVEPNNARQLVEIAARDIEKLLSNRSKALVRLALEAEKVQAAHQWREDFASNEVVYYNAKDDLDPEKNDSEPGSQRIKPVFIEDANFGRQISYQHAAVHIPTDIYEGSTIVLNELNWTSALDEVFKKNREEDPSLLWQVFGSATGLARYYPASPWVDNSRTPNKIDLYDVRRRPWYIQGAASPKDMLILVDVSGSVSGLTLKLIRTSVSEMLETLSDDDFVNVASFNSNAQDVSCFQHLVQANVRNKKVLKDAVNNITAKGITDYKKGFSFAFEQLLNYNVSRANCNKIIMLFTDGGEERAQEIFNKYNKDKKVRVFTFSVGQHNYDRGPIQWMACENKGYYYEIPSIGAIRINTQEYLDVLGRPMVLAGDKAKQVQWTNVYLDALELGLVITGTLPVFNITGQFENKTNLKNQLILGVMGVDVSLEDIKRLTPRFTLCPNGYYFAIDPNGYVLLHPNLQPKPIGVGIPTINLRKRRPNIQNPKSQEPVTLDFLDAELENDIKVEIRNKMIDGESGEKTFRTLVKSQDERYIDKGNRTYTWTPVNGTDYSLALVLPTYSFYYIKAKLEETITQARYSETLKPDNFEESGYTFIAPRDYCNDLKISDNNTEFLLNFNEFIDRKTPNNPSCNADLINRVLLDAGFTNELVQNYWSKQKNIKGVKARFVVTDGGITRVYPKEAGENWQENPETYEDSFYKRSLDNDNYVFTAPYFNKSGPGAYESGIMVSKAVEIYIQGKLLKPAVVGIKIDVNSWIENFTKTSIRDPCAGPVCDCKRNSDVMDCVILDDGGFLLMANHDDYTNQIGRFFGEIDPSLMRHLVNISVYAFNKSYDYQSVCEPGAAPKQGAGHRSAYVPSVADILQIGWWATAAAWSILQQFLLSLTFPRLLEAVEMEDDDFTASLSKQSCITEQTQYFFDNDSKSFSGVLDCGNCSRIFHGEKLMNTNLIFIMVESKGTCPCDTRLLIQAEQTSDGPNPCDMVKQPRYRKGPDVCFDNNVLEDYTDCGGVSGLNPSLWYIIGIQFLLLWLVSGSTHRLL
Protocol: • Binding assay to human α2δ-1 subunit of Cav2.2 calcium channel.
Human α2δ-1 enriched membranes (2.5 μg) were incubated with 15 nM of radiolabeled [3H]-Gabapentin in assay buffer containing Hepes-KOH 10 mM, pH 7.4.
(§1) NSB (non specific binding) was measured by adding 10 μM pregabalin. The binding of the test compound was measured at five different concentrations. After 60 min of incubation at 27° C., the binding reaction was terminated by filtering through Multiscreen GF/C (Millipore) presoaked in 0.5% polyethyleneimine in Vacuum Manifold Station, followed by 3 washes with ice-cold filtration buffer containing 50 mM Tris-HCl, pH 7.4.
(§2) Filter plates were dried at 60° C. for 1 h and 30 μl of scintillation cocktail were added to each well before radioactivity reading.
(§3) Readings were performed in a Trilux 1450 Microbeta radioactive counter (Perkin Elmer). • Binding assay to human norepinephrine transporter (NET).

[2] = target: human norepinephrine transporter (NET) (Homo sapiens, UniProt P23975); test: Binding assay to human norepinephrine transporter (NET) ([3H]-Nisoxetin); conditions: Table 2, dual compounds, human NET enriched membranes, read-out: Ki(nM) NET Hum
human norepinephrine transporter (NET), sequence (P23975 whole entry): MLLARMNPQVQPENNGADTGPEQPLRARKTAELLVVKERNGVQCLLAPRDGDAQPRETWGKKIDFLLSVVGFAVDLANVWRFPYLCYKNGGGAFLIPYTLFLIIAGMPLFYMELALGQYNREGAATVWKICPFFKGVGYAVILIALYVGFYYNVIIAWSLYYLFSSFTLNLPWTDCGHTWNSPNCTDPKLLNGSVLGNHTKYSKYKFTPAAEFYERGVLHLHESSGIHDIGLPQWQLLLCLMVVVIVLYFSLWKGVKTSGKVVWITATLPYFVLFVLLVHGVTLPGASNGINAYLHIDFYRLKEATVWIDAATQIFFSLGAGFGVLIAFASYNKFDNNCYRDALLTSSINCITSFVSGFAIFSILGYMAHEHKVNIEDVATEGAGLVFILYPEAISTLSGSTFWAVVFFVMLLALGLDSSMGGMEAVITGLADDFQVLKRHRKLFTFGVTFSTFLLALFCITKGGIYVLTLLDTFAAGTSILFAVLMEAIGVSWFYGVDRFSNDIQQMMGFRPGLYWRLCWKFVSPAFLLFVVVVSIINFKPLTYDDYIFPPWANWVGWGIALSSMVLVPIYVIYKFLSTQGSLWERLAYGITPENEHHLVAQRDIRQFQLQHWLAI
Protocol: as §3
Human norepinephrine transporter (NET) enriched membranes (5 μg) were incubated with 5 nM of radiolabeled [3H]-Nisoxetin in assay buffer containing 50 mM Tris-HCl, 120 mM NaCl, 5 mM KCl, pH 7.4.
as §1, with “desipramine.” for “pregabalin.”, “min” for “min of”, “4°” for “27°”, “C.,” for “C., the”, “Tris-HCl, 0.9% NaCl,” for “Tris-HCl,”
as §2
Readings were performed in a Trilux 1450 Microbeta radioactive counter (Perkin Elmer).

[3] = Table 1, human α2δ-1 enriched membranes

Row | Structure (SMILES) | Ki [1, 3] [nM] | further results
1 | CNCCC(Oc1cccc2c1CCN(C)C2)c1cccs1 (stereo not shown) [Example 2, N-methyl-3-((2-methyl-1,2,3,4-tetrahydroisoquinolin-5-yl)oxy)-3-(thiophen-2-yl)propan-1-amine] | < 100 | –
2 | CNCC[C@H](Oc1cccc2cnncc12)c1cccs1 [Example 5, (S)-N-methyl-3-(phthalazin-5-yloxy)-3-(thiophen-2-yl)propan-1-amine] | ≥ 3000 | –
3 | CCNCCC(Oc1cccc2cnncc12)c1ccccc1 (stereo not shown) [Example 11, N-ethyl-3-phenyl-3-(phthalazin-5-yloxy)propan-1-amine] | 500 to 3000 | –
4 | CCNCC[C@@H](Oc1cccc2cnncc12)c1ccccc1 [Example 13, (R)-N-ethyl-3-phenyl-3-(phthalazin-5-yloxy)propan-1-amine] | 500 to 3000 | –
5 | CNCCC(OCc1cccc2cnccc12)c1ccccc1 (stereo not shown) [Example 17, 3-(Isoquinolin-5-ylmethoxy)-N-methyl-3-phenylpropan-1-amine] | ≥ 3000 | –
6 | CNCCC(OCc1cccc2ccncc12)c1ccccc1 (stereo not shown) [Example 18, 3-(isoquinolin-8-ylmethoxy)-N-methyl-3-phenylpropan-1-amine] | ≥ 3000 | –
7 | CNCCC(OCc1cccc2ncccc12)c1ccccc1 (stereo not shown) [Example 19, N-methyl-3-phenyl-3-(quinolin-5-ylmethoxy)propan-1-amine] | ≥ 3000 | –
8 | CNCCC(OCc1cccc2ccncc12)c1cccs1 (stereo not shown) [Example 20, 3-(Isoquinolin-8-ylmethoxy)-N-methyl-3-(thiophen-2-yl)propan-1-amine] | ≥ 3000 | –
9 | CNCCC(OCc1cccc2cnccc12)c1cccs1 (stereo not shown) [Example 21, 3-(isoquinolin-5-ylmethoxy)-N-methyl-3-(thiophen-2-yl)propan-1-amine] | ≥ 3000 | –
10 | CNCCC(OCc1cccc2ncccc12)c1cccs1 (stereo not shown) [Example 22, N-methyl-3-(quinolin-5-ylmethoxy)-3-(thiophen-2-yl)propan-1-amine] | ≥ 3000 | –
11 | CNCC[C@H](Oc1cccc2c1CCCN2C)c1cccs1 [Example 23, (S)—N-methyl-3-((1-methyl-1,2,3,4-tetrahydroquinolin-5-yl)oxy)-3-(thiophen-2-yl)propan-1-amine] | 500 to 3000 | –
12 | CNCC[C@H](Oc1cccc2c1CCN(C)C2)c1cccs1 [Example 25, (S)—N-methyl-3-((2-methyl-1,2,3,4-tetrahydroisoquinolin-5-yl)oxy)-3-(thiophen-2-yl)propan-1-amine] | 100 to 500 | –
13 | CNCC[C@@H](Oc1cccc2c1CCN(C)C2)c1cccs1 [Example 26, (R)—N-methyl-3-((2-methyl-1,2,3,4-tetrahydroisoquinolin-5-yl)oxy)-3-(thiophen-2-yl)propan-1-amine] | < 100 | –
14 | CNCC[C@H](Oc1cccc2c1ccc(=O)n2C)c1cccs1 [Example 28, (S)-1-methyl-5-(3-(methylamino)-1-(thiophen-2-yl)propoxy)quinolin-2(1H)-one] | 500 to 3000 | –
15 | CCNCC[C@H](Oc1cccc2c(=O)n(C)cnc12)c1cccs1 [Example 34, (S)-8-(3-(ethylamino)-1-(thiophen-2-yl)propoxy)-3-methylquinazolin-4(3H)-one] | ≥ 3000 | –
16 | CCNCC[C@H](Oc1cccc2c(=O)n(C)ccc12)c1cccs1 [Example 35, (S)-5-(3-(ethylamino)-1-(thiophen-2-yl)propoxy)-2-methylisoquinolin-1(2H)-one] | 500 to 3000 | –
17 | CCNCC[C@H](Oc1cccc2ncn(C)c(=O)c12)c1cccs1 [Example 36, (S)-5-(3-(ethylamino)-1-(thiophen-2-yl)propoxy)-3-methylquinazolin-4(3H)-one] | ≥ 3000 | –
18 | CCNCC[C@H](Oc1cccc2ncncc12)c1cccs1 [Example 38, (S)-N-ethyl-3-(quinazolin-5-yloxy)-3-(thiophen-2-yl)propan-1-amine] | 500 to 3000 | –
19 | CNCC[C@@H](Oc1cc(F)cc2ncn(C)c(=O)c12)c1cccs1 [Example 45, (R)-7-fluoro-3-methyl-5-(3-(methylamino)-1-(thiophen-2-yl)propoxyl)quinazolin-4(3H)-one] | 100 to 500 | –

Now from value to compound, other results behind:

Row | Ki [1, 3] [nM] | Structure (SMILES) | further results
20 | 100 to 500 | CNCCC(Oc1cccc2c1CCCN2C)c1cccs1 (stereo not shown) [Example 1, N-Methyl-3-((1-methyl-1,2,3,4-tetrahydroquinolin-5-yl)oxy)-3-(thiophen-2-yl)propan-1-amine] | Ki ([1]; Table 2, dual compounds, human α2δ-1 enriched membranes): 100 to 500 nM; Ki [2]: 500 to 1000 nM
21 | 100 to 500 | CNCC[C@@H](Oc1cccc2cnncc12)c1cccs1 [Example 4, (R)—N-Methyl-3-(phthalazin-5-yloxy)-3-(thiophen-2-yl)propan-1-amine] | –
22 | < 100 | CNCCC(Oc1cccc2cnncc12)c1cccs1 (stereo not shown) [Example 6, N-methyl-3-(phthalazin-5-yloxy)-3-(thiophen-2-yl)propan-1-amine] | –
23 | 100 to 500 | CNCCC(Oc1cccc2ncn(C)c(=O)c12)c1cccs1 (stereo not shown) [Example 7, 3-methyl-5-(3-(methylamino)-1-(thiophen-2-yl)propoxy)quinazolin-4(3H)-one] | –
24 | 100 to 500 | CNCCC(Oc1cccc2c(=O)n(C)cnc12)c1cccs1 (stereo not shown) [Example 8, 3-methyl-8-(3-(methylamino)-1-(thiophen-2-yl)propoxy)quinazolin-4(3H)-one] | –
25 | 100 to 500 | CNCCC(Oc1cccc2c(=O)n(C)ccc12)c1cccs1 (stereo not shown) [Example 9, 2-methyl-5-(3-(methylamino)-1-(thiophen-2-yl)propoxy)isoquinolin-1(2H)-one] | –
26 | 100 to 500 | CCNCCC(Oc1cccc2cnncc12)c1cccs1 (stereo not shown) [Example 12, N-ethyl-3-(phthalazin-5-yloxy)-3-(thiophen-2-yl)propan-1-amine] | –
27 | < 100 | CCNCC[C@@H](Oc1cccc2cnncc12)c1cccs1 [Example 14, (R)-N-ethyl-3-(phthalazin-5-yloxy)-3-(thiophen-2-yl)propan-1-amine] | –
28 | 100 to 500 | CNCC[C@@H](Oc1cccc2c1CCCN2C)c1cccs1 [Example 24, (R)—N-methyl-3-((1-methyl-1,2,3,4-tetrahydroquinolin-5-yl)oxy)-3-(thiophen-2-yl)propan-1-amine] | –
29 | < 100 | CCNCCC(Oc1cccc2c1CCN(C)C2)c1cccs1 (stereo not shown) [Example 27, N-ethyl-3-((2-methyl-1,2,3,4-tetrahydroisoquinolin-5-yl)oxy)-3-(thiophen-2-yl)propan-1-amine] | –
30 | 100 to 500 | CNCC[C@@H](Oc1cccc2c1ccc(=O)n2C)c1cccs1 [Example 29, (R)-1-methyl-5-(3-(methylamino)-1-(thiophen-2-yl)propoxy)quinolin-2(1H)-one] | –
31 | < 100 | CCNCC[C@@H](Oc1cccc2ncn(C)c(=O)c12)c1cccs1 [Example 30, (R)-5-(3-(ethylamino)-1-(thiophen-2-yl)propoxy)-3-methylquinazolin-4(3H)-one] | –
32 | < 100 | CCNCC[C@@H](Oc1cccc2c(=O)n(C)ccc12)c1cccs1 [Example 31, (R)-5-(3-(ethylamino)-1-(thiophen-2-yl)propoxy)-2-methylisoquinolin-1(2H)-one] | –
33 | 100 to 500 | CCNCC[C@@H](Oc1cccc2c(=O)n(C)cnc12)c1cccs1 [Example 32, (R)-8-(3-(ethylamino)-1-(thiophen-2-yl)propoxy)-3-methylquinazolin-4(3H)-one] | –
34 | 100 to 500 | CNCC[C@H](Oc1cccc2ncncc12)c1cccs1 [Example 33, (S)-N-methyl-3-(quinazolin-5-yloxy)-3-(thiophen-2-yl)propan-1-amine] | –
35 | < 100 | CNCC[C@@H](Oc1cccc2ncncc12)c1cccs1 [Example 37, (R)-N-methyl-3-(quinazolin-5-yloxy)-3-(thiophen-2-yl)propan-1-amine] | –
36 | 100 to 500 | CCNCC[C@@H](Oc1cccc2ncncc12)c1cccs1 [Example 39, (R)-N-ethyl-3-(quinazolin-5-yloxy)-3-(thiophen-2-yl)propan-1-amine] | –
37 | < 100 | CCNCC[C@@H](Oc1cccc2ncncc12)c1ccsc1 [Example 40, (R)-N-ethyl-3-(quinazolin-5-yloxy)-3-(thiophen-3-yl)propan-1-amine] | –
38 | < 100 | CCNCC[C@@H](Oc1cccc2c(=O)n(C)cnc12)c1ccsc1 [Example 41, (R)-8-(3-(ethylamino)-1-(thiophen-3-yl)propoxy)-3-methylquinazolin-4(3H)-one] | –
39 | < 100 | CCNCC[C@@H](Oc1cccc2c(=O)n(C)ccc12)c1ccsc1 [Example 42, (R)-5-(3-(ethylamino)-1-(thiophen-3-yl)propoxy)-2-methylisoquinolin-1(2H)-one] | –
40 | 100 to 500 | CNCC[C@@H](Oc1cccc2ncn(C)c(=O)c12)c1ccsc1 [Example 43, (R)-3-methyl-5-(3-(methylamino)-1-(thiophen-3-yl)propoxyl)quinazolin-4(3H)-one] | –
41 | 100 to 500 | CCNCC[C@@H](Oc1cc(C)cc2c(=O)n(C)cnc12)c1cccs1 [Example 44, (R)-8-(3-(ethylamino)-1-(thiophen-2-yl)propoxy)-3,6-dimethylquinazolin-4(3H)-one] | –
